Experimental findings from patent US6207393A, “Inhibition of intracellular signal transduction by 14-3-3-binding peptides” (Washington University, priority 1999, dated 2001) are described below.

Several values for one entry are separate records, joined by “and”; a condition that tells them apart may be missing. Equal values may be shown once. Where a SMILES comes first, the peptide text is derived from it. [ ]: non-standard residue; d: D form. pS = N[C@@H](COP(=O)(O)O)C(=O)O

In one test the target is T1, 14-3-3 zeta (Homo sapiens, UniProt P63104).
T1 construct: made in house; host or cells: E. coli DH5α (vector pGEX-KT)
T1 sequence (P63104 1-245): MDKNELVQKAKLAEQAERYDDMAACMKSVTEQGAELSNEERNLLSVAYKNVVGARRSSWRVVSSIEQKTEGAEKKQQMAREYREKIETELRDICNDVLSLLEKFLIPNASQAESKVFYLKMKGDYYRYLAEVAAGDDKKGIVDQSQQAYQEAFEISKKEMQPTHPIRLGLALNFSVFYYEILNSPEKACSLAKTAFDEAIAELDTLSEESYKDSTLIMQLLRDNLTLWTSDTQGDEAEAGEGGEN
The test can be described thus: SPR competitive inhibition of 14-3-3 zeta binding to chip-coupled phosphorylated Raf-259 peptide. The settings on record: 14-3-3 zeta 0.5-1.0 μM; competitor 1-50 μM; relative affinity only. As for the experimental part:
(§1) The ability of each peptide to inhibit binding of 14-3-3 zeta to the phosphorylated peptide was then tested in a range of concentrations between 1 and 50 μM. 14-3-3 zeta was prepared according to the methods in Example 1 and binding affinities and specificities were determined using the peptides in Table 2. The 14-3-3 zeta fusion proteins (0.5-1.0 μM) were pre-incubated with a given peptide at concentrations between 1 μM and 50 μM. 14-3-3 zeta was then infused across a sensor chip surface which had been previously coupled with the phosphorylated Raf-259 peptide (SEQ ID NO: 4). IC50 values were determined by plotting the concentration of competitor peptide required to achieve a 50% reduction in equilibrium binding.

The target of a further test is T2, 14-3-3 eta (Homo sapiens, UniProt Q04917).
T2 construct: made in house; host or cells: E. coli DH5α (vector pGEX-KT)
T2 sequence (Q04917 1-246): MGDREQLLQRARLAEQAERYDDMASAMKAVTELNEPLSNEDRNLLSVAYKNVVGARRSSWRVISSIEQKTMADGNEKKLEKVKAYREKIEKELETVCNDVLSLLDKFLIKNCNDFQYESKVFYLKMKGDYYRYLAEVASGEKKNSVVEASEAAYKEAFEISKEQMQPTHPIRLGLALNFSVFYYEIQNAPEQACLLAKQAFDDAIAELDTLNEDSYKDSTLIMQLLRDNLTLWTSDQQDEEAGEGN
Description: SPR competitive inhibition of 14-3-3 eta binding to phosphorylated Raf-259 peptide. The following applies: isoform eta. As for the experimental part:
as §1
There are seven known isoforms of 14-3-3 which form homo- and heterodimers in vivo. If different isoforms of 14-3-3 could bind to proteins with distinct specificities, heterodimeric forms of 14-3-3 might function as modular linker proteins, bringing together different proteins into a single complex. We were, therefore, interested in determining whether different 14-3-3 isoforms recognize phosphoserine in a sequence specific fashion. This hypothesis was tested by expressing and purifying three other 14-3-3 isoforms, eta, beta and tau, and measuring their affinity towards the panel of phosphorylated peptides generated above. Using the Surface Plasmon Resonance method, the "on" and "off" rates for 14-3-3 binding to the phosphorylated Raf-259 peptide were calculated (Table 6).
Competitive inhibition with the mutated phosphorylated Raf-1 peptides was used to determine whether their specificities were similar (Table 7). In each case, the calculated IC50 s were very similar to those calculated for 14-3-3 zeta.

For `CC(C)C[C@H](N)C(=O)N[C@@H](CO)C(=O)N[C@@H](CCC(N)=O)C(=O)N[C@@H](CCCNC(=N)N)C(=O)N[C@@H](CCC(N)=O)C(=O)N[C@@H](CCCNC(=N)N)C(=O)N[C@@H](CO)C(=O)N[C@H](C(=O)N[C@@H](COP(=O)(O)O)C(=O)N[C@H](C(=O)N1CCC[C@H]1C(=O)N[C@@H](CC(N)=O)C(=O)N[C@H](C(=O)N[C@@H](Cc1c[nH]cn1)C(=O)N[C@@H](C)C(=O)O)C(C)C)[C@@H](C)O)[C@@H](C)O` [pS-Raf-259] (H-LSQRQRST[pS]TPNVHA-OH), the IC50 was 6 µM and ~6 µM on 14-3-3 zeta; 5 µM on 14-3-3 eta.

In general, IC50 refers to the concentration needed to halve the response being measured. High values mean lower potency, low ones higher potency.
